Key:
[1] = Reducing activity with the stable radical DPPH
Method: The chalcones were studied for the antioxidant activity (reducing activity RA%) by the use of the stable free radical 2,2-diphenyl-1-picrylhydrazyl radical (DPPH) at concentrations 0.05 mM after 20 and 60 min (Table 2). In this procedure, the dominant chemical reaction involved is the reduction of the DPPH radical by single electron transfer from the antioxidant. […] For the sake of comparison, we measured the RA% values for the intermediate double ethers d which were included in the Table 2.
To a solution of DPPH (final concentration 0.05 mM) in absolute ethanol an equal volume of the compounds solution in DMSO (stock solution 10 mM) dissolved in ethanol was added. Absolute ethanol was used as a control. The concentrations of the solutions of the compounds were 0.05 and 0.1 mM. The absorbance was recorded at 517 nm at room temperature after 20 and 60 min [29] (Table 2).

[2] = ABTS•+ decolorization assay
Method: The decolorization assay is used to evaluate the antioxidant activity. The ABTS^•+ cationic radical is derived from the direct oxidation of ABTS by potassium persulfate. No involvement of an intermediary radical is observed. The addition of electron-donating antioxidants reduce ABTS^•+.
Stock solutions of the tested compounds in DMSO (10 mM) were diluted. […] aliquots of each sample were added into the ABTS·^+ solution and the absorbance was recorded at room temperature. Trolox was used as a standard.

[3] = Inhibition of linoleic acid lipid peroxidation (AAPH)
Source text: The water soluble 2,2′-azobis(2-amidinopropane) hydrochloride (AAPH) generates in vitro free radicals through spontaneous thermal decomposition. […] Overall, chalcones a, b, and c present anti-lipid peroxidation activity. […] The inhibiting activities for the rest b chalcones ranged from 15–44%. The intermediate ethers are moderate inhibitors. […] This might be correlated with the presence of the double C=C–COCH3 group. […] Both have a long ether chain in their structure.
In an aqueous solution spectrophotometrically at 234 nm the production of conjugated diene hydro peroxide by oxidation of sodium linoleate was monitored and recorded according to our previous published experimental conditions, using 10 µL of the 16 mM sodium linoleate solution added to the UV cuvette containing 930 μL of 0.05 M phosphate buffer, pH 7.4 pre-thermostated at 37 °C, under air by the addition of 50 μL of 40 mM AAPH solution, which was used as a free radical initiator. Ten microliters (10 μL) of the appropriate solutions of the tested compounds were added in the mixture, whereas same level of DMSO was used as a blank for the measurement of lipid oxidation. The rate of oxidation at 37 °C was monitored by recording the increase in absorption at 234 nm caused by conjugated diene hydro peroxides.

soybean lipoxygenase = molecular target: T1, soybean lipoxygenase (Glycine max, UniProt P08170); experiment: biochemical; assay type: biochemical; conditions: soybean LOX, 100 μM
T1 sequence (P08170 1-839): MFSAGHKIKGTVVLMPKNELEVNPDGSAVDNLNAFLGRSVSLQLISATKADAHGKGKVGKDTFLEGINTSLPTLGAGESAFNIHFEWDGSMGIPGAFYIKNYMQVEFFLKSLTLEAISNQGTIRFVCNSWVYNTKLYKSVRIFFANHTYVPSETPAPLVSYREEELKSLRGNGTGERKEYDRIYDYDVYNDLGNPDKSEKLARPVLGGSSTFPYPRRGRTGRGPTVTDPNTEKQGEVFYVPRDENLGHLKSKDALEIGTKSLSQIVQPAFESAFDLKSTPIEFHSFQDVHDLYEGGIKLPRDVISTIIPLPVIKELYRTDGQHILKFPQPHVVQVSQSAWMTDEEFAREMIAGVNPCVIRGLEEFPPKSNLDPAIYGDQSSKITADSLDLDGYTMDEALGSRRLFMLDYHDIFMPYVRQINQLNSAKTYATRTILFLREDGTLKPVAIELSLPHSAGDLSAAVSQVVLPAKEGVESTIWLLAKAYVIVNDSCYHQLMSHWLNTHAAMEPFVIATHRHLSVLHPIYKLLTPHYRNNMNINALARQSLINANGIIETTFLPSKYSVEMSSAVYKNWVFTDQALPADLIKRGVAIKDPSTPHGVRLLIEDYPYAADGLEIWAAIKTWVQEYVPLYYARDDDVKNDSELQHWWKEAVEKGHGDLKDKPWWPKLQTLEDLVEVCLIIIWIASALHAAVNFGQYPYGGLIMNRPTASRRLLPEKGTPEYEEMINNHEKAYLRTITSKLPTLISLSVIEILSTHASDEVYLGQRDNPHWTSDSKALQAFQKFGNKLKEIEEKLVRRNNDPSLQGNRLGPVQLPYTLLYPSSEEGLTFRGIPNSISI
Source text: In our experiments we used soybean lipoxygenase. Designing agents to modulate activities of the variety of so closely homologous enzymes, such as different LOXs, require an intimate knowledge of their 3D structures, as well as information about metabolism of the potential xenobiotics. […] Due to lack of sufficiently-purified human enzymes most of the research has been done on soybean LOX [52, 53]. Although this enzyme is not identical to the mammalian one, it seems that there is a sufficient qualitative correlation between values for enzyme inhibition with the two enzymes.
In vitro study was evaluated as reported previously. The tested compounds as stock solutions were dissolved in DMSO. Ten microliters (10 μL) were incubated at room temperature with sodium linoleate ([…]) and 0.2 mL of enzyme solution (1/9 × 10^−4 w/v in saline) in buffer pH 9 (tris) at room temperature (final volume 1 mL). […] Several concentrations were used for the determination of IC50 values.

[4] = Lipophilicity as RM values by RP-TLC; assay type: physicochemical; set-up: key: RM = log[(1/Rf) − 1]; conditions: methanol/water 70/30, SD < 10%
Source text: It is well-documented and discussed in the literature that lipophilicity is a very significant physicochemical property which may critically affect distribution, bioavailability, metabolic activity and elimination, all the useful characteristics for the kinetics of biologically active compounds. Thus, we attempted to determine experimentally the lipophilicity of the synthesized compounds from the RPTLC method as RM values. The method is considered to be a reliable, fast and convenient method for expressing lipophilicity. Moreover, many calculated methods were used in order to predict the logP value.
Reversed phase TLC (RP-TLC) was performed on silica gel plates impregnated with 5% (v/v) liquid paraffin in light petroleum ether. The mobile phase was a methanol/water mixture (70/30, v/v). The plates were developed in closed chromatography tanks saturated with the mobile phase at 24 °C. Spots were detected under UV light. Five individual measurements of Rf values were recorded and used for the determination of RM using the equation RM = log [(1/Rf) − 1]. (Table 3).

[5] = system: L929 mouse fibroblasts cells; experiment: Cytotoxicity, propidium iodide fluorescence method; assay type: cell-based; conditions: 24-h incubation
Method: The cytotoxicity of the synthesized derivatives against L929 mouse fibroblasts cells was determined using the propidium iodide (PI) fluorescence method in the presence of different concentrations (1–100 μM) of these compounds. The results are presented in Table 4 in the form of the % cell survival values as PI% for the examined compounds. […] Chalcones c7, c8, c11, and c12 follow.
L929 mouse fibroblasts cells were cultured in EMEM supplemented with 10% horse serum, 2 mM L-glutamine, 1 mM sodium pyruvate, 0.1 mM nonessential amino acids, 1.5 g/L sodium bicarbonate, and 100 μg/mL penicillin–streptomycin at 37 °C in a humidified atmosphere with 5% CO2. L929 cells were plated into 24-well plates at a density […] and allowed to attach and grow for 24 h. The supernatant in each well then replaced with medium containing various concentrations (1, 10, 20, 50 and 100 μM) of compounds a5–12, c5–12, di, and dii–dvi, which presented the more interesting results in the in vitro experiments. After 24-h incubation, the supernatant was removed and the cells were washed with PBS. The cells were detached with 0.25% trypsin, transferred to FACS tubes, and then centrifuged (1600 rpm for 5 min) and the pellet washed with PBS. After washing, the cells in the pellet were incubated with 5 μL propidium iodide (PI) solution (1 mg/mL) for 1 min. The PI fluorescence (cell death) was determined with flow cytometry, FACS Calibur, Coulter Epics XL-MCL (Beckman, Inc., Mount Holly, NJ, USA). The analysis of flow cytometry data was performed with the WinMDI analysis program (Table 4).

Row | SMILES | RA% 100 μM 20 min [1] | RA% 100 μM 60 min [1] | ABTS•+ Inhb. % @ 100 μM [2] | AAPH% @ 100 μM (anti-lipid peroxidation) [3] [%] | % LOX Inhb. @ 100 μM (soybean lipoxygenase) [%] | RM [4] | 1 μM Average (% pi) ± σ [5] [%] | 10 μM Average (% pi) ± σ [5] [%] | 20 μM Average (% pi) ± σ [5] [%] | 50 μM Average (% pi) ± σ [5] [%] | 100 μM Average (% pi) ± σ [5] [%]
1 | O=C(/C=C/C=C/c1ccccc1)c1ccc(O)cc1 [a7, (2E,4E)-1-(4-hydroxyphenyl)-5-phenylpenta-2,4-dien-1-one] | 19% | 6% | 12% | 31 | 4 | −0.64 | 6.85 ± 3.12 | 9.27 ± 1.9 | 9.24 ± 6.49 | 60.95 ± 0.01 | 60.95 ± 0.01
2 | O=C(/C=C/c1ccco1)c1ccc(O)cc1 [a10, (E)-3-(furan-2-yl)-1-(4-hydroxyphenyl) prop-2-en-1-one] | 23% | 10% | 2% | 24 | 23 | −0.06 | 3.03 ± 0.88 | 2.25 ± 0.38 | 2.39 ± 1.08 | 17.15 ± 0.32 | 17.15 ± 0.32
3 | O=C(/C=C/C=C/c1ccc([N+](=O)[O-])cc1)c1ccc(O)cc1 [a11, (2E,4E)-1-(4-hydroxyphenyl)-5-(4-nitrophenyl) penta-2,4-dien-1-one] | 7% | 3% | 14% | 55 | 36 | −1.09 |  | 6.26 ± 3 | 18.81 ± 2.57 | 67.84 ± 6.45 | 67.84 ± 6.45
4 | O=C(/C=C/C=C/c1ccccc1)c1ccc(OCCCOc2ccc(C(=O)/C=C/C=C/c3ccccc3)cc2)cc1 [c7, (2E,2′E,4E,4′E)-1,1′-((propane-1,3-diylbis(oxy))bis(4,1-phenylene))bis(5-phenylpenta-2,4-dien-1-one)] | No | no | No | 82 | 41 | −0.77 | 22.5 ± 11.64 | 28.73 ± 11.78 | 25.4 ± 8.42 | 28.84 ± 5.62 | 28.84 ± 5.62
5 | O=C(/C=C/C(Br)=C\c1ccccc1)c1ccc(O)cc1 [a9, (2E,4E)-4-bromo-1-(4-hydroxyphenyl)-5-phenylpenta-2,4-dien-1-one] | 10% | 1% | No | 33 | 16 | −0.82 | 0.55 ± 0.09 | 0.59 ± 0.83 | 2.7 ± 0.68 | 7.59 ± 0.13 | 7.59 ± 0.13
6 | O=C(/C=C/c1cccs1)c1ccc(O)cc1 [a5, (E)-1-(4-hydroxyphenyl)-3-(thiophen-2-yl) prop-2-en-1-one] | 17% | 3% | No | 23 | 9 | −0.62 | 11.36 ± 0.62 |  | 28.32 ± 2.91 | 36.15 ± 2.33 | 36.15 ± 2.33
